Source: ChEMBL document CHEMBL1201862, “PubChem BioAssay data set” (2004)
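Exposure lasted 48 hours, with cells grown in 96-well plates and compounds tested at five concentrations. At the GI50, growth is halved.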 Activity calls are given as the source filed them. Cut-off read from the data, not from the text of the source: active = GI50 up to about 1.1 µM and inactive = higher.

Columns and labels:
Assay in all cases: DTP human tumour cell line panel, 48 h
CCRF-CEM = test system: CCRF-CEM
DLD-1 = test system: DLD-1
M19-MEL = test system: M19-MEL
SK-OV-3 = test system: SK-OV-3
HCT-15 = test system: HCT-15
SK-MEL-5 = test system: SK-MEL-5
SF-295 = test system: SF-295
HOP-62 = test system: HOP-62
IGROV-1 = test system: IGROV-1
UACC-257 = test system: UACC-257
SK-MEL-28 = test system: SK-MEL-28
NCI-H522 = test system: NCI-H522
KM-20L2 = test system: KM-20L2
Malme-3M = test system: Malme-3M
HOP-18 = test system: HOP-18
U-251 = test system: U-251
MOLT-4 = test system: MOLT-4
SN12C = test system: SN12C
SNB-75 = test system: SNB-75
A498 = test system: A498
HL-60 = test system: HL-60
ACHN = test system: ACHN
XF498 = test system: XF498
DMS-273 = test system: DMS-273
HCC 2998 = test system: HCC 2998
A549 = test system: A549
K562 = test system: K562
NCI-H23 = test system: NCI-H23
LXFL 529 = test system: LXFL 529
RPMI-8226 = test system: RPMI-8226
SF-539 = test system: SF-539
OVCAR-4 = test system: OVCAR-4
SNB-19 = test system: SNB-19
DMS-114 = test system: DMS-114
UACC-62 = test system: UACC-62
OVCAR-8 = test system: OVCAR-8
COLO 205 = test system: COLO 205
HT-29 = test system: HT-29
EKVX = test system: EKVX
RXF 393 = test system: RXF 393
SR = test system: SR
SNB-78 = test system: SNB-78
M14 = test system: M14
SW-620 = test system: SW-620
HOP-92 = test system: HOP-92
UO-31 = test system: UO-31
786-0 = test system: 786-0
NCI-H226 = test system: NCI-H226
SF-268 = test system: SF-268
HCT-116 = test system: HCT-116
OVCAR-5 = test system: OVCAR-5
KM12 = test system: KM12
OVCAR-3 = test system: OVCAR-3
NCI-H460 = test system: NCI-H460
SK-MEL-2 = test system: SK-MEL-2
TK-10 = test system: TK-10
LOX IMVI = test system: LOX IMVI
CAKI-1 = test system: CAKI-1

For O=C1c2ccccc2N2OC3(N4CCCC4)CCCCC3C12c1ccccc1 (configuration not stated), the GI50 (CCRF-CEM) was 18.7 µM (inactive), the GI50 (DLD-1) was 20 µM (inactive) and the GI50 (M19-MEL) was 10.1 µM (inactive). For the same compound, the GI50 (SK-OV-3) was > 100 µM (inactive), the GI50 (HCT-15) was 26.4 µM and the GI50 (SK-MEL-5) was 15.1 µM (inactive). For the same compound, the GI50 (SF-295) was 18.3 µM (inactive), the GI50 (HOP-62) was > 100 µM (inactive) and the GI50 (IGROV-1) was 42 µM (inactive). For the same compound, the GI50 (UACC-257) was 19.3 µM (inactive), the GI50 (SK-MEL-28) was 25.4 µM (inactive) and the GI50 (NCI-H522) was 14.9 µM (inactive). For the same compound, the GI50 (KM-20L2) was 43.5 µM (inactive), the GI50 (Malme-3M) was 18.8 µM (inactive) and the GI50 (HOP-18) was > 100 µM (inactive). The GI50 (U-251) was 28.1 µM (inactive), the GI50 (MOLT-4) was 35.7 µM (inactive) and the GI50 (SN12C) was 16.9 µM (inactive). The GI50 (SNB-75) was 34.1 µM (inactive), the GI50 (A498) was > 100 µM (inactive) and the GI50 (HL-60) was 19.1 µM (inactive). For the same compound, the GI50 (ACHN) was 18.5 µM (inactive), the GI50 (XF498) was 22.4 µM (inactive) and the GI50 (DMS-273) was 17 µM (inactive). The GI50 (HCC 2998) was 53 µM (inactive), the GI50 (A549) was 21 µM (inactive) and the GI50 (K562) was 19.5 µM (inactive). For the same compound, the GI50 (NCI-H23) was 20.1 µM (inactive), the GI50 (LXFL 529) was 14.5 µM (inactive) and the GI50 (RPMI-8226) was > 100 µM (inactive). The GI50 (SF-539) was 31.4 µM (inactive), the GI50 (OVCAR-4) was 14.5 µM (inactive) and the GI50 (SNB-19) was > 100 µM (inactive). For the same compound, the GI50 (DMS-114) was 15.2 µM (inactive), the GI50 (UACC-62) was 16.4 µM (inactive) and the GI50 (OVCAR-8) was 17.5 µM (inactive). For the same compound, the GI50 (COLO 205) was 17.3 µM (inactive), the GI50 (HT-29) was 21.8 µM (inactive) and the GI50 (EKVX) was 69.8 µM (inactive). For the same compound, the GI50 (RXF 393) was 17.5 µM (inactive), the GI50 (SR) was 33.8 µM (inactive) and the GI50 (SNB-78) was 16.6 µM (inactive). The GI50 (M14) was 17.6 µM (inactive), the GI50 (SW-620) was 17.7 µM (inactive) and the GI50 (HOP-92) was 16.1 µM (inactive). For the same compound, the GI50 (UO-31) was 39.7 µM (inactive), the GI50 (786-0) was 17.7 µM (inactive) and the GI50 (NCI-H226) was 37.3 µM (inactive). The GI50 (SF-268) was 16.6 µM (inactive) and the GI50 (HCT-116) was 14.4 µM (inactive).
In the case of Cc1cc(Br)ccc1NC1=CC(=O)C(=O)c2ccccc21, the GI50 (CCRF-CEM) is reported as 35.1 µM (inactive), the GI50 (DLD-1) is reported as > 100 µM (inactive) and the GI50 (M19-MEL) is reported as 15.2 µM (inactive). For the same compound, the GI50 (SK-OV-3) was 49.3 µM (inactive), the GI50 (HCT-15) was 55.2 µM and the GI50 (SK-MEL-5) was 20 µM (inactive). For the same compound, the GI50 (SF-295) was 38.5 µM (inactive), the GI50 (HOP-62) was > 100 µM (inactive) and the GI50 (IGROV-1) was 77.6 µM (inactive). For the same compound, the GI50 (UACC-257) was 15.9 µM (inactive), the GI50 (OVCAR-5) was 70.8 µM (inactive) and the GI50 (KM12) was 38.5 µM (inactive). For the same compound, the GI50 (SK-MEL-28) was 45.3 µM (inactive), the GI50 (NCI-H522) was 30.8 µM (inactive) and the GI50 (KM-20L2) was > 100 µM (inactive). For the same compound, the GI50 (Malme-3M) was 24.3 µM (inactive), the GI50 (HOP-18) was 16 µM (inactive) and the GI50 (U-251) was 26.4 µM (inactive). For the same compound, the GI50 (MOLT-4) was 39.4 µM (inactive), the GI50 (SN12C) was 60.1 µM (inactive) and the GI50 (SNB-75) was 41.1 µM (inactive). The GI50 (OVCAR-3) was 35 µM (inactive), the GI50 (A498) was 86.7 µM (inactive) and the GI50 (HL-60) was 13.6 µM (inactive). The GI50 (ACHN) was 36.4 µM (inactive), the GI50 (XF498) was 31.6 µM (inactive) and the GI50 (DMS-273) was 31.4 µM (inactive). The GI50 (HCC 2998) was 62.1 µM (inactive), the GI50 (A549) was 39.1 µM (inactive) and the GI50 (NCI-H460) was 27.9 µM (inactive). The GI50 (K562) was 51.4 µM (inactive), the GI50 (NCI-H23) was 10.9 µM (inactive) and the GI50 (LXFL 529) was 55.7 µM (inactive). For the same compound, the GI50 (RPMI-8226) was 36.9 µM (inactive), the GI50 (SF-539) was 74.8 µM (inactive) and the GI50 (OVCAR-4) was 9.08 µM (inactive). For the same compound, the GI50 (SNB-19) was 24.2 µM (inactive), the GI50 (DMS-114) was 19.8 µM (inactive) and the GI50 (UACC-62) was 20 µM (inactive). For the same compound, the GI50 (OVCAR-8) was 42.2 µM (inactive), the GI50 (COLO 205) was 31.6 µM (inactive) and the GI50 (HT-29) was 51.2 µM (inactive). For the same compound, the GI50 (EKVX) was > 100 µM (inactive), the GI50 (RXF 393) was 30.5 µM (inactive) and the GI50 (SR) was 15.5 µM (inactive). The GI50 (SNB-78) was > 100 µM (inactive), the GI50 (M14) was 52.1 µM (inactive) and the GI50 (SW-620) was 29.9 µM (inactive). The GI50 (SK-MEL-2) was 23.6 µM (inactive), the GI50 (UO-31) was 94.6 µM (inactive) and the GI50 (TK-10) was 99.8 µM (inactive). The GI50 (786-0) was 38.5 µM (inactive), the GI50 (NCI-H226) was 39.8 µM (inactive) and the GI50 (SF-268) was 47.4 µM (inactive). The GI50 (LOX IMVI) was 21.4 µM (inactive), the GI50 (CAKI-1) was 28.1 µM (inactive) and the GI50 (HCT-116) was 52.7 µM (inactive).
